Reference: ChEMBL document CHEMBL1201862, “PubChem BioAssay data set” (2004)
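Five concentrations, 48 hours, 96-well plates. GI50 is the concentration that inhibits growth by half.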 Active and inactive are the calls of the source. Rule as the data show it: active = GI50 up to about 1.1 µM and inactive = higher.

How the values were obtained:
Assay in all cases: NCI tumour cell line growth inhibition, 48 h
UO-31 = system: UO-31
SNB-19 = system: SNB-19
MDA-MB-435 = system: MDA-MB-435
SK-MEL-2 = system: SK-MEL-2
HOP-92 = system: HOP-92
NCI-H23 = system: NCI-H23
HCT-15 = system: HCT-15
OVCAR-8 = system: OVCAR-8
PC-3 = system: PC-3
HOP-62 = system: HOP-62
OVCAR-5 = system: OVCAR-5
OVCAR-3 = system: OVCAR-3
HCC 2998 = system: HCC 2998
SF-268 = system: SF-268
EKVX = system: EKVX
HL-60 = system: HL-60
M14 = system: M14
LOX IMVI = system: LOX IMVI
NCI-H460 = system: NCI-H460
IGROV-1 = system: IGROV-1

SMILES	GI50 (UO-31)	GI50 (SNB-19)	GI50 (MDA-MB-435)	GI50 (SK-MEL-2)	GI50 (HOP-92)	GI50 (NCI-H23)	GI50 (HCT-15) [µM]	GI50 (OVCAR-8)	GI50 (PC-3)	GI50 (HOP-62)	GI50 (OVCAR-5)	GI50 (OVCAR-3)	GI50 (HCC 2998)	GI50 (SF-268)	GI50 (EKVX)	GI50 (HL-60)	GI50 (M14)	GI50 (LOX IMVI)	GI50 (NCI-H460)	GI50 (IGROV-1)
CC1=C(C)C(=O)OC(C(C)(O)C2(O)CCC3(O)C4CC(Cl)C5(O)C(O)C=CC(=O)C5(C)C4CCC32C)C1 (stereo not given)	15.6 µM (inactive)	49.8 µM (inactive)	18.7 µM (inactive)	> 100 µM (inactive)	> 100 µM (inactive)	64.7 µM (inactive)	28.7	25.1 µM (inactive)	48.1 µM (inactive)	> 100 µM (inactive)	> 100 µM (inactive)	52.8 µM (inactive)	27.1 µM (inactive)	48.1 µM (inactive)	53.7 µM (inactive)	4.15 µM (inactive)	40.3 µM (inactive)	14.9 µM (inactive)	36.1 µM (inactive)	49.3 µM (inactive)
COc1ccc(/C=C2\c3cc(OC)c(OC)cc3CCN2C(=O)c2ccccc2)cc1OC	35.5 µM (inactive)	> 100 µM (inactive)	21.2 µM (inactive)	43.3 µM (inactive)	> 100 µM (inactive)	87.5 µM (inactive)	42.4	27.5 µM (inactive)	46.5 µM (inactive)	37.2 µM (inactive)	55 µM (inactive)	35.7 µM (inactive)	44.6 µM (inactive)	46.3 µM (inactive)	4.09 µM (inactive)	23.1 µM (inactive)	58.2 µM (inactive)	41.6 µM (inactive)	28.1 µM (inactive)	> 100 µM (inactive)
CSCCCNC(=O)c1csc(-c2csc(CCNC(=O)CNC(=O)CNC(=O)OC(C)(C)C)n2)n1	> 100 µM (inactive)	> 100 µM (inactive)	> 100 µM (inactive)	> 100 µM (inactive)	> 100 µM (inactive)	> 100 µM (inactive)	> 100	> 100 µM (inactive)	> 100 µM (inactive)	> 100 µM (inactive)	> 100 µM (inactive)	> 100 µM (inactive)	> 100 µM (inactive)	> 100 µM (inactive)	> 100 µM (inactive)	> 100 µM (inactive)	> 100 µM (inactive)	> 100 µM (inactive)	> 100 µM (inactive)	> 100 µM (inactive)
Cc1ccc2c(c1)C(=O)C(C1OC(=O)c3ccccc31)C2 (stereo not given)	> 100 µM (inactive)	87.3 µM (inactive)	> 100 µM (inactive)	> 100 µM (inactive)	> 100 µM (inactive)	> 100 µM (inactive)	42.8	> 100 µM (inactive)	93.5 µM (inactive)	> 100 µM (inactive)	> 100 µM (inactive)	91 µM (inactive)	> 100 µM (inactive)	> 100 µM (inactive)	> 100 µM (inactive)	64.7 µM (inactive)	> 100 µM (inactive)	39.9 µM (inactive)	> 100 µM (inactive)	> 100 µM (inactive)
CCCCCCN(CCCCCC)CCC(=O)c1ccc2cc(Br)c3ccccc3c2c1	26.7 µM (inactive)	44.3 µM (inactive)	26.1 µM (inactive)	27.3 µM (inactive)	19.4 µM (inactive)	81.8 µM (inactive)	33.8	31.7 µM (inactive)	31.3 µM (inactive)	40.4 µM (inactive)	78 µM (inactive)	33 µM (inactive)	41.3 µM (inactive)	28.1 µM (inactive)	> 100 µM (inactive)	10.8 µM (inactive)	82.6 µM (inactive)	32 µM (inactive)	30.5 µM (inactive)	40.3 µM (inactive)
C=CCSC1=N/C(=C\c2ccccc2)C(=O)N1CC=C	40.5 µM (inactive)	> 100 µM (inactive)	36.8 µM (inactive)	29.6 µM (inactive)	17.1 µM (inactive)	56 µM (inactive)	35.2	32.7 µM (inactive)	24.8 µM (inactive)	99.1 µM (inactive)	> 100 µM (inactive)	> 47.2 µM (inactive)	28.9 µM (inactive)	6.85 µM (inactive)	22.5 µM (inactive)	5.24 µM (inactive)	67.9 µM (inactive)	26.4 µM (inactive)	41.6 µM (inactive)	> 100 µM (inactive)
Nc1ccc2c3[nH]c4cc(N)ccc4cc-3nc2c1	0.0925 µM (active)	0.209 µM (active)	0.136 µM (active)	0.413 µM (active)	0.0422 µM (active)	0.202 µM (active)	0.266	0.151 µM (active)	0.224 µM (active)	0.117 µM (active)	0.291 µM (active)	0.349 µM (active)	0.09 µM (active)	0.232 µM (active)	0.267 µM (active)	0.273 µM (active)	0.344 µM (active)	0.199 µM (active)	0.0775 µM (active)	2.16 µM (inactive)
O=C(CCCl)NN=C1NCCCCN1	> 100 µM (inactive)	> 100 µM (inactive)	> 100 µM (inactive)	> 100 µM (inactive)	> 100 µM (inactive)	> 100 µM (inactive)	> 100	> 100 µM (inactive)	> 100 µM (inactive)	> 100 µM (inactive)	> 100 µM (inactive)	> 100 µM (inactive)	> 100 µM (inactive)	> 100 µM (inactive)	> 100 µM (inactive)	> 100 µM (inactive)	> 100 µM (inactive)	> 100 µM (inactive)	> 100 µM (inactive)	> 100 µM (inactive)
O=c1c2cc(Cl)ccc2n2nnc3ccc(NCCNCCO)c1c32	1.17 µM (inactive)	1.5 µM (inactive)	1.12 µM (inactive)	2.09 µM (inactive)	2.02 µM (inactive)	1.36 µM (inactive)	0.718	0.614 µM (active)	1.16 µM (inactive)	1.41 µM (inactive)	1.64 µM (inactive)	1.59 µM (inactive)	1.37 µM (inactive)	2.74 µM (inactive)	1.93 µM (inactive)	1.78 µM (inactive)	1.38 µM (inactive)	0.583 µM (active)	0.378 µM (active)	2.11 µM (inactive)
CCCCCCCCCCNC(=O)CCC(NC(=O)c1ccc(N(C)Cc2cnc3nc(N)nc(N)c3n2)cc1)C(=O)NCCCCCCCCCC (stereo not given)	74.3 µM (inactive)	9.46 µM (inactive)	4.2 µM (inactive)	13.6 µM (inactive)	9.1 µM (inactive)	14.7 µM (inactive)	17.9	8.45 µM (inactive)	5.62 µM (inactive)	31.8 µM (inactive)	23.8 µM (inactive)	10 µM (inactive)	5.75 µM (inactive)	9.62 µM (inactive)	12.3 µM (inactive)	3.4 µM (inactive)	8.97 µM (inactive)	2.36 µM (inactive)	4.06 µM (inactive)	6.04 µM (inactive)
COc1ccc(C2=Nn3c(nnc(Cc4ccc(Cl)cc4)c3=O)SC2)cc1	52.1 µM (inactive)	53.2 µM (inactive)	10.4 µM (inactive)	26.5 µM (inactive)	> 100 µM (inactive)	35.4 µM (inactive)	29	93.1 µM (inactive)	42.9 µM (inactive)	62.1 µM (inactive)	> 100 µM (inactive)	28.2 µM (inactive)	55.1 µM (inactive)	> 100 µM (inactive)	52.2 µM (inactive)	32.8 µM (inactive)	31.5 µM (inactive)	34.9 µM (inactive)	37.8 µM (inactive)	51.1 µM (inactive)
COc1cccc2cc(C(=O)Nc3ccccn3)c(=N)oc12	> 100 µM (inactive)	> 100 µM (inactive)	63.4 µM (inactive)	33.6 µM (inactive)	> 100 µM (inactive)	52.5 µM (inactive)	> 100	> 100 µM (inactive)	> 100 µM (inactive)	82.8 µM (inactive)	> 100 µM (inactive)	23.7 µM (inactive)	> 100 µM (inactive)	64.1 µM (inactive)	> 100 µM (inactive)	21.6 µM (inactive)	72.8 µM (inactive)	> 100 µM (inactive)	> 100 µM (inactive)	> 100 µM (inactive)
COc1cc(/C=C2\CC3C4CC=C5C[C@@H](O)CC[C@]5(C)C4CC[C@]3(C)\C2=N\O)cc(OC)c1OC (stereo not given in full)	2.28 µM (inactive)	21.3 µM (inactive)	5.12 µM (inactive)	4.07 µM (inactive)	14.3 µM (inactive)	7.16 µM (inactive)	3.88	8.45 µM (inactive)	4.28 µM (inactive)	19.6 µM (inactive)	10.3 µM (inactive)	7.29 µM (inactive)	6.34 µM (inactive)	8.02 µM (inactive)	6.04 µM (inactive)	4.61 µM (inactive)	10.5 µM (inactive)	5.48 µM (inactive)	4.99 µM (inactive)	13 µM (inactive)
C[C@@]12C[C@@H](c3ccccc3O1)N1CCCSC1=N2	> 100 µM (inactive)	> 100 µM (inactive)	> 100 µM (inactive)	> 100 µM (inactive)	> 100 µM (inactive)	> 100 µM (inactive)	> 100	> 100 µM (inactive)	> 100 µM (inactive)	> 100 µM (inactive)	> 100 µM (inactive)	> 100 µM (inactive)	> 100 µM (inactive)	> 100 µM (inactive)	> 100 µM (inactive)	> 100 µM (inactive)	> 100 µM (inactive)	> 100 µM (inactive)	> 100 µM (inactive)	> 100 µM (inactive)
